The CheMixHub viscosity set

Test: xn = mol fraction of the nth substance listed

C=CCN=C=S + NCCN
313.15 K, 100 kPa
Conditions | viscosity [mPa·s]
x1 = 0.15 | 2.956
x1 = 0.2794 | 6.678
x1 = 0.4515 | 71.46
x1 = 0.4948 | 155.4
x1 = 0.5496 | 648.5
x1 = 0.5994 | 2470
x1 = 0.667 | 61100
x1 = 0.7502 | 281.4
x1 = 0.851 | 55.46

C=C(C)C(=O)OCCCC + C1CCCCC1
viscosity [mPa·s], 101 kPa
Conditions | 298.15 K | 308.15 K
x1 = 0.056 | 0.866 | 0.737
x1 = 0.1555 | 0.835 | 0.711
x1 = 0.2562 | 0.812 | 0.692
x1 = 0.3534 | 0.797 | 0.68
x1 = 0.4548 | 0.789 | 0.673
x1 = 0.4924 | 0.788 | 0.673
x1 = 0.5528 | 0.788 | 0.673
x1 = 0.6497 | 0.794 | 0.678
x1 = 0.7645 | 0.81 | 0.692
x1 = 0.8529 | 0.83 | 0.708
x1 = 0.9568 | 0.861 | 0.735

CCCCCCn1cc[n+](C)c1.[Cl-] + CCCCCCn1cc[n+](C)c1.F[B-](F)(F)F
101 kPa
Conditions | viscosity [mPa·s]
303.15 K, x1 = 0.2 | 375.2
303.15 K, x1 = 0.4 | 795.2
308.15 K, x1 = 0.4 | 552.8
313.15 K, x1 = 0.4 | 394.5
318.15 K, x1 = 0.6 | 563.8
323.15 K, x1 = 0.6 | 403.5
323.15 K, x1 = 0.8 | 843.9

CCCCCCCCCCCO + CCCCCCCO
viscosity [mPa·s]
Conditions | x2 = 0.1397 | x2 = 0.2254 | x2 = 0.388 | x2 = 0.5976 | x2 = 0.7764 | x2 = 0.9311
293.15 K, 101 kPa | – | 14.95 | – | – | – | –
298.15 K, 101.8 kPa | 12.82 | – | 10.49 | 8.805 | 7.365 | 6.099
308.15 K, 101.8 kPa | 8.867 | – | 7.363 | 6.26 | 5.311 | 4.433
318.15 K, 101.8 kPa | 6.299 | – | 5.309 | 4.554 | 3.906 | 3.289

O=CN1CCOCC1 + Clc1ccccc1
viscosity [mPa·s], 101 kPa
Conditions | x1 = 0.1017 | x1 = 0.203 | x1 = 0.3039 | x1 = 0.4045 | x1 = 0.5046 | x1 = 0.6044 | x1 = 0.7039 | x1 = 0.8029 | x1 = 0.9017
303.15 K | 0.844 | 1.034 | 1.274 | 1.58 | 1.966 | 2.471 | 3.125 | 3.981 | 5.096
308.15 K | 0.801 | 0.973 | 1.186 | 1.455 | 1.793 | 2.233 | 2.8 | 3.529 | 4.465
313.15 K | 0.753 | 0.911 | 1.105 | 1.351 | 1.656 | 2.05 | 2.56 | 3.21 | 4.04
